Assays:
β2AR [1] = molecular target: T1, β2AR (Homo sapiens, UniProt P07550); assay: β-arrestin-2 recruitment assay (PathHunter enzyme fragment complementation), norepinephrine-stimulated; assay type: cell-based; conditions: for negative allosteric effect on norepinephrine-stimulated β-arrestin 2 recruitment (in words): analogs tested at 10 μM and 30 μM compared to norepinephrine alone (FIG. 9); for inhibition at 30 µM: arrestin recruitment stimulated by norepinephrine after preincubation with 30 μM of the test compound; for inhibition at 30 µM / inhibition at 10 µM: read-out: attenuation of Emax (maximum efficacy of norepinephrine); for inhibition at 10 µM: arrestin recruitment stimulated by norepinephrine, attenuating effect at 10 μM of the test compound
T1 construct: host or cells: HEK293 cells stably expressing (EA)-β-arrestin-2
T1 sequence (P07550 whole entry, the tested form may be a part): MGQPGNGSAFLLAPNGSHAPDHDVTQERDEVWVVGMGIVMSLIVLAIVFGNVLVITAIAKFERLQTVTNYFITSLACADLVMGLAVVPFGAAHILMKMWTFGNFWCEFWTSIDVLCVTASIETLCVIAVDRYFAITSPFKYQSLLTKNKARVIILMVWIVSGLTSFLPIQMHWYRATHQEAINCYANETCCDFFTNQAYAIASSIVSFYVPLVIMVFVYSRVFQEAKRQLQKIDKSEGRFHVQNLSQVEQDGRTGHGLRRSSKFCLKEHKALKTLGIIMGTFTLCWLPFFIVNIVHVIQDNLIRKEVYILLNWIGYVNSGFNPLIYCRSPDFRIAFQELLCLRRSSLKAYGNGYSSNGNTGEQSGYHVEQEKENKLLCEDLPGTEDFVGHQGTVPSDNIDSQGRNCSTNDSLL
Protocol: (§1) β-Arrestin-2 Recruitment Assay. Determination of β-arrestin-2 recruitment was performed applying the PathHunter assay (DiscoverX, Birmingham, U.K.) which is based on fragment complementation of β-galactosidase in HEK293 cells stably expressing (EA)-β-arrestin-2 and being transiently transfected with a receptor tagged to the PK fragment. In general, cells were transfected employing Mirus TransIT-293 (peqlab, Erlangen, Germany) and incubated in DMEM/F12 medium (Life Technologies, Darmstadt, Germany) at 37° C. and 5% of CO2. After 24 hrs cells were detached with Versene (Life Technologies) and transferred into 384-well plates (white plate, transparent bottom, Greiner Bio-One, Frickenhausen, Germany) at a density of 5000 cells/well using the medium CP4 Reagent (DiscoverX). After further 24 hrs of incubation test compounds dissolved in PBS were added to the cells at a final volume of 25 μL and incubated at 37° C. for a distinct time which was optimized for each receptor (details are summarized in the supporting information). Determination of β-arrestin-2 recruitment was started by adding detection mix, incubation at room temperature for 60 min and measuring chemoluminescence with a Clariostar plate reader (BMG, Ortenberg, Germany). For measuring allosteric effects the modulator was preincubated with the cells at a distinct concentration for 30 min followed by the addition of reference agonist. Data analysis of functional experiments were performed by normalizing the raw data relative to basal activity (0%) and the maximum effect of the reference agonist (100%). Normalized curves from three to seven individual experiments each done as duplicate were analyzed by non-linear regression applying the algorithms in Prism 6.0 (GraphPad, San Diego, Calif.) to get dose-response curves representing average EC50 and Emax value.
β-Arrestin-2 Recruitment Assay. β-Arrestin-2 recruitment was performed applying the fragment complementation assay PathHunter (DiscoverX) with HEK293 cells stably expressing (EA)-β-arrestin-2. The appropriate receptor was transiently transfected when using a specific pCMV vectors with the PK-tag located at different distances downstream of the C-terminus of the inserted receptor (PK1, PK2 and PK-ARMS2, purchased from DiscoverX, Birmingham, UK). ADRB2-PK encoding the human β2AR was purchased from DiscoverX, while all other vectors with related GPCRs were engineered by inserting the DNA of the appropriate receptor in frame into the different PK constructs further excluding the stop codon. Mutants of the β2AR were done applying polymerase chain reaction with appropriate primers.

β1AR = molecular target: T2, β1AR (Mus musculus, UniProt P34971); assay: β-arrestin-2 recruitment assay, subtype selectivity; assay type: cell-based
T2 construct: expressed in transfected cells; host or cells: HEK293 cells stably expressing (EA)-β-arrestin-2
T2 sequence (P34971 whole entry): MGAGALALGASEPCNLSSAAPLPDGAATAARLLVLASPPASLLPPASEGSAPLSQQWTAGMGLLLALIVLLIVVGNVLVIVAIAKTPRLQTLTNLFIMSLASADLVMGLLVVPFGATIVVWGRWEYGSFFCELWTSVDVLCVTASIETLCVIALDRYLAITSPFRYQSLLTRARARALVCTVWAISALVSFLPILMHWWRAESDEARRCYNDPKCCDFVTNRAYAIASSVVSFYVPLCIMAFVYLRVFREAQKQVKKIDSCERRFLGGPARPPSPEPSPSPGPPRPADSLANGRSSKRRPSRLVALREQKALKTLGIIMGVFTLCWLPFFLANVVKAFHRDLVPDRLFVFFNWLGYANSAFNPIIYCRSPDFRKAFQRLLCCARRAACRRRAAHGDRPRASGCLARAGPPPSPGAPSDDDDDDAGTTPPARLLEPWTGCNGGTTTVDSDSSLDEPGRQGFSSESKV
Protocol: as §1
(§2) β-Arrestin-2 Recruitment Assay. β-Arrestin-2 recruitment was performed applying the fragment complementation assay PathHunter (DiscoverX) with HEK293 cells stably expressing (EA)-β-arrestin-2. […]

[2] = test system: other Family A GPCRs (α2AAR, 5-HT1AR, M2AChR, D2longDR, PAR2, NTS1R, μOR, κOR, δOR); assay: as above; assay type: cell-based
Protocol: as §1, §2

α1AAR = molecular target: T3, α1AAR (Homo sapiens, UniProt P35348); assay: as above; assay type: cell-based
T3 construct: expressed in transfected cells; host or cells: HEK293 cells stably expressing (EA)-β-arrestin-2
T3 sequence (P35348 1-466): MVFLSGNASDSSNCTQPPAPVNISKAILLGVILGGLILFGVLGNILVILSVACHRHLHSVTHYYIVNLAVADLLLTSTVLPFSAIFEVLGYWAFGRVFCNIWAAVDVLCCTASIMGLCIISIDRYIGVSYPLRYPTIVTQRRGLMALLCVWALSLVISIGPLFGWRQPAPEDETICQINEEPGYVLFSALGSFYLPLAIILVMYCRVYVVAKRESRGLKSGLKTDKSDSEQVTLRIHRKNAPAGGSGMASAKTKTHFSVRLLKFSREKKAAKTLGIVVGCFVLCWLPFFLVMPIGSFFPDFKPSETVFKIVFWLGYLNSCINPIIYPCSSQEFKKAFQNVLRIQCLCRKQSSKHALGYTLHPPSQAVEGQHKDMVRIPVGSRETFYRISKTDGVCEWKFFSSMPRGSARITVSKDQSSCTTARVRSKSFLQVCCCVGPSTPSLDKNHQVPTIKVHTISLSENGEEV
Protocol: as §1, §2

[3] = test system: β2AR E122^3.41 mutants (E122L, E122Q, E122R); assay: Radioligand binding assay with [3H]DHAP, E122 mutants; design: species or system human; conditions: all of the mutants, relative to wild type
Protocol: Membranes prepared from Sf9 cells infected with baculoviruses expressing β2AR (wt) or E122 mutants in the absence or presence of co-expressed Gs heterotrimer were assessed by radioligand binding with [^3H]DHAP. […] Ki's were determined using Graphpad (Prism, San Diego) using the Kd of [^3H]DHAP specific for β2AR (wt) and each mutant, according to the Cheng-Prusoff equation. Values for high affinity agonist site (Khigh) and low affinity site (Klow) from membranes prepared from β2AR (wt) or mutants co-infected with Gs heterotrimer were determined by non-linear regression fitting (2-site) using Kd values of [^3H]DHAP, as above (Graphpad, San Diego).
Radioligand binding assay. […] Samples were taken at varying time points, filtered and washed as described below to remove free [^3H]formoterol. For [^3H]DHAP saturation isotherms of β2AR and mutants, membranes were incubated with varying concentrations of [^3H]DHAP and filtered as described below. Samples were subject to rapid filtration through GF/B membranes and rinsed with ice cold binding buffer to remove free [^3H]probe. Filter plates were dried before adding Microscint 0 and counting bound [^3H]probe using a Packard TopCount. All data were analyzed using Graphpad (Prism, San Diego Calif.).

β2AR [4] = molecular target: T1, β2AR; assay: cAMP accumulation assay (FRET-Epac sensor); assay type: cell-based
Protocol: cAMP accumulation assays. Intact cell cAMP accumulation was measured using the FRET-epac sensor in stable HEK293-Epac cells endogenously expressing β2AR or in CHO cells co-transfected with Epac and β2AR or the mutants. Cells were harvested with lifting buffer (20 mM HEPES, pH 7.4, 150 mM NaCl and 0.68 mM EDTA), centrifuged and resuspended in HBSS-HEPES (Hank's Balanced Salt Solution plus 20 mM HEPES, pH 7.4) containing 0-150 μM modulator or vehicle (for a final assay concentration of 0-100 μM). This cell suspension (100 μL) was pipetted into the wells of a 96 well plate (black with clear bottom). After 20 min in the dark at 37° C., 50 μL of HBSS-HEPES buffer at 37° C. containing 1B MX (1 mM final), ascorbic acid (1 mM final), and norepinephrine or epinephrine (0-100 μM final) was added. The CFP/YFP ratio of the Epac-cAMP FRET sensor was immediately measured for 15 min using wavelengths of 435 nm for excitation with 485 nm and 530 nm for emission using a SpectraMax M5 (Molecular Devices).

| negative allosteric effect on norepinephrine-stimulated β-arrestin 2 recruitment (in words) (β2AR [1]) | inhibition at 30 µM (β2AR [1]) [%] | SMILES | further results |
| --- | --- | --- | --- |
| reduced allosteric modulation | 31 to 70 | Nc1nc(Nc2ccccc2)nc2cccc(Br)c12 [AS094, 5-Bromo-N^2-phenylquinazoline-2,4-diamine] |  |
|  | 31 to 70 | Nc1nc(Nc2ccccc2)nc2cccc(Cl)c12 [AS098, 5-Chloro-N^2-phenylquinazoline-2,4-diamine] |  |
|  | < 30 | Nc1nc(Nc2ccc(S(N)(=O)=O)cc2)nc2ccccc12 [AS197, 4-((4-Aminoquinazolin-2-yl)amino)benzenesulfonamide] |  |
|  | < 30 | CNC(=O)c1ccc(Nc2nc(N)c3ccccc3n2)cc1 [AS198, 4-((4-Aminoquinazolin-2-yl)amino)-N-methylbenzamide] |  |
|  | < 30 | COC(=O)c1ccc(Nc2nc(N)c3c(F)cccc3n2)c(O)c1 [AS202, Methyl 4-((4-amino-5-fluoroquinazolin-2-yl)amino)-3-hydroxybenzoate] |  |
|  | < 30 | COC(=O)c1ccc(Nc2nc(N)c3c(Cl)cccc3n2)cc1 [AS228, Methyl 4-((4-amino-5-chloroquinazolin-2-yl)amino)benzoate] |  |
| reduced allosteric modulation | 31 to 70 | Nc1nc(Nc2ccccc2)nc2c(Br)cccc12 [AS241, 8-Bromo-N^2-phenylquinazoline-2,4-diamine] |  |
|  | 31 to 70 | Nc1nc(Nc2ccccc2)nc2c(Cl)cccc12 [AS328, 8-Chloro-N^2-phenylquinazoline-2,4-diamine] |  |
|  |  | Nc1nc(Nc2ccccc2)nc2ccc(Br)cc12 [AS408, 6-Bromo-N^2-phenylquinazoline-2,4-diamine] | potency at β1AR relative to β2AR (β1AR): small reduction in the potency; allosteric activity at the other GPCRs tested [2]: no allosteric activity; allosteric activity at α1AR (α1AAR): weak NAM; effect of AS408 on agonist binding affinity at E122 mutants [3]: reduced relative to the wild-type receptor |
| reduced allosteric modulation | 31 to 70 | Nc1nc(Nc2ccccc2)nc2cc(Br)ccc12 [AS436, 7-Bromo-N^2-phenylquinazoline-2,4-diamine] |  |
| reduces the negative allosteric effect |  | CCCNc1nc(N)c2ccccc2n1 [BRAC1-5] |  |
| Reduction of the allosteric effect |  | Nc1nc(Nc2cccc(O)c2)nc2ccccc12 [BRAC1-23] |  |
| weak, negative allosteric regulation |  | Nc1nc(Nc2ccccc2)nc2ccccc12 [BRAC1] | negative allosteric regulation of cAMP accumulation (in words) (β2AR [4]): weak, negative allosteric regulation |
| activity comparable to Br | 71 to 100 | Nc1nc(Nc2ccccc2)nc2ccc(Cl)cc12 [DD282, 6-Chloro-N^2-phenylquinazoline-2,4-diamine] |  |
|  | < 30 | Nc1nc(Nc2ccccc2CO)nc2ccc(Br)cc12 [DD283, 6-Bromo-N^2-(2-hydroxymethyl)phenylquinazoline-2,4-diamine] |  |
| less potent | < 30 | Nc1nc(Nc2ccccc2)nc2ccc(F)cc12 [DD284, 6-Fluoro-N^2-phenylquinazoline-2,4-diamine] |  |
| attenuated negative allosteric effect | 31 to 70 | Brc1ccc2nc(Nc3ccccc3)ncc2c1 [DD288, 6-Bromo-/V-phenylquinazolin-2-amine] |  |
|  |  | Nc1nc(Nc2ccc3ccccc3c2)nc2ccc(Br)cc12 [DD290, 6-bromo-N2-(naphthalen-2-yl)quinazoline-2,4-diamine] | inhibition at 10 µM (β2AR [1]): < 30% |
|  | < 30 | Nc1nc(Nc2cccc(CCC(=O)O)c2)nc2ccc(Br)cc12 [DD291, 3-(3-((4-amino-6-bromoquinazolin-2-yl)amino)phenyl)propanoic acid] |  |
| activity comparable to Br | 71 to 100 | Nc1nc(Nc2ccccc2)nc2ccc(C(F)(F)F)cc12 [DD293, 6-Trifluoromethyl-N^2-phenylquinazoline-2,4-diamine] |  |
|  | < 30 | Nc1nc(Nc2cccc(CCC(=O)OCC(O)CO)c2)nc2ccc(Br)cc12 (stereo not drawn) [DD294, 2,3-dihydroxypropyl-(3-((4-amino-6-bromoquinazolin-2-yl)amino)phenyl)propanoate] |  |
|  |  | COC(=O)c1ccc(Nc2nc(N)c3ccccc3n2)c(O)c1 [JT11, Methyl 4-((4-aminoquinazolin-2-yl)amino)-3-hydroxybenzoate] | inhibition at 10 µM (β2AR [1]): < 30% |
|  | < 30 | Nc1nc(Nc2ccccc2O)nc2cccc(Cl)c12 [JT12, 2-((4-Amino-5-chloroquinazolin-2-yl)amino)phenol] |  |
|  | 31 to 70 | CC(C)c1ccc2nc(Nc3ccccc3)nc(N)c2c1 [ST238, 6-Isopropyl-N^2-phenylquinazoline-2,4-diamine] |  |
| activity comparable to Br | 71 to 100 | Nc1nc(Nc2ccccc2)nc2ccc(I)cc12 [ST239, 6-Iodo-N^2-phenylquinazoline-2,4-diamine] |  |

| SMILES | negative allosteric effect on norepinephrine-stimulated β-arrestin 2 recruitment (in words) (β2AR [1]) | inhibition at 30 µM (β2AR [1]) [%] | further results |
| --- | --- | --- | --- |
| Nc1nc(Nc2ccccc2)nc2ccc(-c3ccccc3)cc12 [ST240, N^2,6-Diphenylquinazoline-2,4-diamine] | further disruption of the negative allosteric effect | 31 to 70 |  |

Reference: patent publication US20210353626A1, “BETA-ADRENERGIC RECEPTOR ALLOSTERIC MODULATORS” (THE REGENTS OF THE UNIVERSITY OF CALIFORNIA, priority 2018, published 2021)
